Assay [1] deals with EGFR (Epidermal Growth Factor Receptor 1) (Homo sapiens, UniProt P00533). Put plainly: ELISA protein tyrosine kinase inhibition, EGFR. The assay is classed as biochemical. Particulars: ELISA, Poly(Glu, Tyr) 4:1 substrate, ATP 5 μM, test samples at 10-5 mol/l; read-out: EGFR inhibitory activity (IC50 class). From the text:
(§1) Determining the Effect of Test Samples at a Concentration of 10-5 Mol/l on the Activity of the Substrate Phosphoryation Catalyzed by EGFR (Epidermal Growth Factor Receptor 1), ErbB-2 (Epidermal Growth Factor Receptor 2), ErbB-4, KDR (Vascular Endothelial Growth Factor Receptor 2) Protein Tyrosine Kinases at Molecular Level
(§2) Enzyme-Linked Immunosorbent Assay (ELISA)
(§3) Main instrument: wavelength-tunable microplate reader (VERSAmax).
(§4) Main reagents: kinase reaction substrate Poly(Glu, Tyr) 4:1 from Sigma; anti-phosphotyrosine monoclonal antibody PY99 from Santa Cruz; horseradish peroxidase-labeled goat anti-mouse IgG from Calbiochem; ATP, DTT, OPD from Amresco, and ELISA plate from Corning.
(§5) Poly(Glu, Tyr)4:1 as an enzyme substrate was diluted by potassium ion-free PBS into 20 μg/ml, and an ELISA plate was coated and subjected to reaction for 12-16 h at 37° C. After the liquid in wells was removed, the plate was washed three time by T-PBS, 5 min for each time. The ELISA plate was then dried in an oven at 37° C. The coated wells were added with the test samples: the test samples were prepared for a stock solution with a concentration of 1×10^−2M in DMSO. The aliquot solution was stored at −20° C., and diluted to the desired concentration with reaction buffer before use. The resulting solution was added into the wells so that the final concentration of 10-5 mol/l in 100 μL reaction system can be obtained. At the same time, a positive control well was set up and a positive control compound Su11248 was added. ATP and test tyrosine kinases were added: ATP solution diluted with reaction buffer was added (the final concentration of ATP is 5 μM). Finally, the test tyrosine kinases solution diluted with reaction buffer was added. The total volume of the reaction system was […]. Meanwhile, a negative control well and a control well without enzyme were set up. The reaction system was placed in a wet box, and shaked for 1 hour at 37° C., shielding from light. After the reaction was complete, the plate was washed by T-PBS three times. Antibody PY99 was added at 100 μL/well; and the plate was shaked for 30 min at 37° C. After the reaction was complete, the plate was washed with T-PBS three times. Horseradish peroxidase-labeled goat anti-mouse IgG was added at 100 μL/well, and the plate was shaked for 30 min at 37° C. The plate was washed with T-PBS three times. OPD developing liquid was added at 100 μL/well, and reacted for 1-10 min at room temperature, shielding from light. 50 μL of 2 M H2SO4 was added to stop the reaction. A492 value was determined using wavelength-tunable microplate reader. The inhibition ratio of the samples can be calculated by the following equation: […]

The target of assay [2] is ErbB-2 (Epidermal Growth Factor Receptor 2) (Homo sapiens, UniProt P04626). Put plainly: ELISA protein tyrosine kinase inhibition, ErbB-2. The note with it: Poly(Glu, Tyr) 4:1 substrate, ATP 5 μM, test samples at 10-5 mol/l, read-out: ErbB2 inhibitory activity (IC50 class). The format is biochemical.
Text: as §1, §2, §3, §4, §5
(In an ELISA, binding on a coated surface is turned into a signal by an enzyme label.)

Drawing on patent US9499530B2 (HANGZHOU MINSHENG INSTITUTES FOR PHARMA RESEARCH, priority 2011, dated 2016), this text covers IC50 for 22 molecules.

A word on the IC50: it is the concentration at which inhibition is half-maximal.

EGFR (Epidermal Growth Factor Receptor 1), sequence (P00533 25-1210): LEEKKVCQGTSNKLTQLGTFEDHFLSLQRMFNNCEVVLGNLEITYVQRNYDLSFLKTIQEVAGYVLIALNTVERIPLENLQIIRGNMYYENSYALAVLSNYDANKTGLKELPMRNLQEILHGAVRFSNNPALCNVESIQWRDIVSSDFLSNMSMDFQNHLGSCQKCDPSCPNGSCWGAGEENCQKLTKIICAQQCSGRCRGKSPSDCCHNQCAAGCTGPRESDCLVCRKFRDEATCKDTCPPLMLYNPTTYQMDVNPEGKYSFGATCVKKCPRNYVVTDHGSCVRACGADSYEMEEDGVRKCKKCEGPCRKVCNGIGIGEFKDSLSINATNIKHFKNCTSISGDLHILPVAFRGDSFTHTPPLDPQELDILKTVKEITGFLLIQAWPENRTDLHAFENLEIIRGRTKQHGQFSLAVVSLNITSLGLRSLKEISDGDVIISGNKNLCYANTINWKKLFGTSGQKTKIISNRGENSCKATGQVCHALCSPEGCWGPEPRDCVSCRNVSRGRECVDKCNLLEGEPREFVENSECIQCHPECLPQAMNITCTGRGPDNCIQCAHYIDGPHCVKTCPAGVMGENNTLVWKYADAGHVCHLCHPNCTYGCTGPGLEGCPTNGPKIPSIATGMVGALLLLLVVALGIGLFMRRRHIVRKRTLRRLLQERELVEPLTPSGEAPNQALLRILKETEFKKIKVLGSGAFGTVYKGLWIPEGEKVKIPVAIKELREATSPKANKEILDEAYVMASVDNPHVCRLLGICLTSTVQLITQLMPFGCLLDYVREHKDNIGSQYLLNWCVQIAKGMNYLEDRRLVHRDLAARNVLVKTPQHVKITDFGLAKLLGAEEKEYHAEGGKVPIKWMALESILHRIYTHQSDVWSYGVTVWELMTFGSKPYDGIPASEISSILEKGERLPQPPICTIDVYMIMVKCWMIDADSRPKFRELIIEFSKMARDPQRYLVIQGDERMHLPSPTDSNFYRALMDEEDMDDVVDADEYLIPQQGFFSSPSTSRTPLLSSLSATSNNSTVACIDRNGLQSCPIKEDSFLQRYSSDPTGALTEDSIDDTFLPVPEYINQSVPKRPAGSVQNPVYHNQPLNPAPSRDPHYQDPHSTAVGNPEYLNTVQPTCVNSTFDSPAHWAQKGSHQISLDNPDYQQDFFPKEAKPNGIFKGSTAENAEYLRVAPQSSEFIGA
ErbB-2 (Epidermal Growth Factor Receptor 2), sequence (P04626 23-1255): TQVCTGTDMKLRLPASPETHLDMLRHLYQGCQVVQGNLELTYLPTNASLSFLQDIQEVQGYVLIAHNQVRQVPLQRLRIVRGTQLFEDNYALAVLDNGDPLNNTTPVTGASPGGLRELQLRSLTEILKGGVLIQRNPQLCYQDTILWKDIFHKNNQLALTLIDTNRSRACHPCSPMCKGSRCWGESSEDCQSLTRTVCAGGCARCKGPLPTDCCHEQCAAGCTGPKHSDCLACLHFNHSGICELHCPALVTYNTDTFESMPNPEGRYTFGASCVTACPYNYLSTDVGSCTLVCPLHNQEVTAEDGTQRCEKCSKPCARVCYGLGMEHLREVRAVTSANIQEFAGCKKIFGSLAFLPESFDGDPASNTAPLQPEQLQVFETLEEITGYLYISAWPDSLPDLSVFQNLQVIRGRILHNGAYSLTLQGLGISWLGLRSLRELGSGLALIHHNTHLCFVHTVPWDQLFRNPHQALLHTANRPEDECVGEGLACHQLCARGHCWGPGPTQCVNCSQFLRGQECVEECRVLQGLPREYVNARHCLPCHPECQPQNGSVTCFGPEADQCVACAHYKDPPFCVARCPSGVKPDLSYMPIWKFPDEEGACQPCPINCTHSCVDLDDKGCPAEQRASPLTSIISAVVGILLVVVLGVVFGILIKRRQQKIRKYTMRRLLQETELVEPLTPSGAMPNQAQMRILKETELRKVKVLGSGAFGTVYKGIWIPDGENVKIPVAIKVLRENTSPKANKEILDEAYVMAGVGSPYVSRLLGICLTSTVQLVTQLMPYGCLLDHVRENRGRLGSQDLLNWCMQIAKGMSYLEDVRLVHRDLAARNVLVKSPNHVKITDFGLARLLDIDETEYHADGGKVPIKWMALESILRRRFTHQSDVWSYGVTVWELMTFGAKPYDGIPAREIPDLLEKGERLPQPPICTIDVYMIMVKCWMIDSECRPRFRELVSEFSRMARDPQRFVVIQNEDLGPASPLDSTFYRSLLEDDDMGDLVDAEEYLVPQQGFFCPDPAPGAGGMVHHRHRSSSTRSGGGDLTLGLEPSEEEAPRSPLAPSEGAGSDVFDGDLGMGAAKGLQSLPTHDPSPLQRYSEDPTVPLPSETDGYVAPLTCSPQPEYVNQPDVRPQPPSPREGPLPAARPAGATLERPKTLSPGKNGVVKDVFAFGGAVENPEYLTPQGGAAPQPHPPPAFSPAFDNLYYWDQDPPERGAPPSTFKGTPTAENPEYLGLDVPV

On to `COCCCCNCc1ccc(-c2ccc3ncnc(Nc4ccc(OCc5cccc(F)c5)c(Cl)c4)c3c2)o1` [MS10·dimethanesulfonate, N-(3-chloro-4-((3-fluorobenzyl)oxy)phenyl)-6-(5-(((4-methoxybutyl)amino)methyl)-2-furyl)-4-quinazolinamine], for which the IC50 in assay [1] and in assay [2] was below 10 µM throughout.
As to `CCCCCCNCc1ccc(-c2ccc3ncnc(Nc4ccc(OCc5cccc(F)c5)c(Cl)c4)c3c2)o1` [MS 2, N-(3-chloro-4-((3-fluorobenzyl)oxy)phenyl)-6-(5-((n-hexylamino)methyl)-2-furyl)-4-quinazolinamine], the IC50 in assay [1] was below 10 µM; in assay [2], above 10 µM.
`CCNCc1ccc(-c2ccc3ncnc(Nc4ccc(OCc5cccc(F)c5)c(Cl)c4)c3c2)o1` [MS 3, N-(3-chloro-4-((3-fluorobenzyl)oxy)phenyl)-6-(5-((ethylamino)methyl)-2-furyl)-4-quinazolinamine]: the IC50 in assay [1] and in assay [2] was below 10 µM throughout.
Take `CCN(CC)Cc1ccc(-c2ccc3ncnc(Nc4ccc(OCc5cccc(F)c5)c(Cl)c4)c3c2)o1` [MS 4]: the IC50 in assay [1] and in assay [2] was below 10 µM each time.
As for `Fc1cccc(COc2ccc(Nc3ncnc4ccc(-c5ccc(CNCc6cccc(Cl)c6)o5)cc34)cc2Cl)c1` [MS 11, N-(3-chloro-4-((3-fluorobenzyl)oxy)phenyl)-6-(5-(((3-chlorobenzyl)amino)methyl)-2-furyl)-4-quinazolinamine], the IC50 in assay [1] was below 10 µM; in assay [2] it was above 10 µM.
On to `O=[N+]([O-])c1ccc(CCNCc2ccc(-c3ccc4ncnc(Nc5ccc(OCc6cccc(F)c6)c(Cl)c5)c4c3)o2)cc1` [MS 12, N-(3-chloro-4-((3-fluorobenzyl)oxy)phenyl)-6-(5-(((2-(4-nitrophenyl)ethyl)amino)methyl)-2-furyl)-4-quinazolinamine], for which the IC50 in assay [1] and in assay [2] was below 10 µM throughout.
For `Oc1ccc(CCNCc2ccc(-c3ccc4ncnc(Nc5ccc(OCc6cccc(F)c6)c(Cl)c5)c4c3)o2)cc1` [MS 13, N-(3-chloro-4-((3-fluorobenzyl)oxy)phenyl)-6-(5-(((2-(4-hydroxyphenyl)ethyl)amino)methyl)-2-furyl)-4-quinazolinamine], the IC50 in assay [1] and in assay [2] was below 10 µM each time.
Turning to `COc1cc(CCNCc2ccc(-c3ccc4ncnc(Nc5ccc(OCc6cccc(F)c6)c(Cl)c5)c4c3)o2)cc(OC)c1` [MS 14], the half-maximal inhibitory concentration (IC50) in assay [1] and in assay [2] was below 10 µM in each case.
As to `Oc1cc(F)cc(CCNCc2ccc(-c3ccc4ncnc(Nc5ccc(OCc6cccc(F)c6)c(Cl)c5)c4c3)o2)c1` [MS 15, N-(3-chloro-4-((3-fluorobenzyl)oxy)phenyl)-6-(5-(((2-(3-hydroxy-5-fluorophenyl)ethyl)amino)methyl)-2-furyl)-4-quinazolinamine], the IC50 in assay [1] and in assay [2] was below 10 µM in each case.
For `Fc1cc(Cl)cc(CCNCc2ccc(-c3ccc4ncnc(Nc5ccc(OCc6cccc(F)c6)c(Cl)c5)c4c3)o2)c1` [MS 16, N-(3-chloro-4-((3-fluorobenzyl)oxy)phenyl)-6-(5-(((2-(3-chloro-5-fluorophenyl)ethyl)amino)methyl)-2-furyl)-4-quinazolinamine], the IC50 is below 10 µM in assay [1] and above 10 µM in assay [2].
Turning to `OCCCCC(O)CNCc1ccc(-c2ccc3ncnc(Nc4ccc(OCc5cccc(F)c5)c(Cl)c4)c3c2)o1` (centres unmarked) [MS 17, N-(3-chloro-4-((3-fluorobenzyl)oxy)phenyl)-6-(5-(((2,6-dihydroxyhexyl)amino)methyl)-2-furyl)-4-quinazolinamine], the IC50 in assay [1] and in assay [2] was below 10 µM in each case.
As for `Fc1cccc(COc2ccc(Nc3ncnc4ccc(-c5ccc(CNOCc6ccccc6)o5)cc34)cc2Cl)c1` [MS 19, N-(3-chloro-4-((3-fluorobenzyl)oxy)phenyl)-6-(5-(((benzyloxy)amino)methyl)-2-furyl)-4-quinazolinamine], the IC50 in assay [1] and in assay [2] was below 10 µM throughout.
Regarding `NC1CCCC(NCc2ccc(-c3ccc4ncnc(Nc5ccc(OCc6cccc(F)c6)c(Cl)c5)c4c3)o2)C1` (centres unmarked) [MS 21, N-(3-chloro-4-((3-fluorobenzyl)oxy)phenyl)-6-(5-(((3-aminocyclohexyl)amino)methyl)-2-furyl)-4-quinazolinamine], the IC50 in assay [1] and in assay [2] was below 10 µM in each case.
As for `O=C(O)CNCc1ccc(-c2ccc3ncnc(Nc4ccc(OCc5cccc(F)c5)c(Cl)c4)c3c2)o1` [MS 22, N-(3-chloro-4-((3-fluorobenzyl)oxy)phenyl)-6-(5-(((carboxymethyl)amino)methyl)-2-furyl)-4-quinazolinamine], the IC50 in assay [1] and in assay [2] was below 10 µM throughout.
For the molecule `O=C(O)C(Cc1ccccc1)NCc1ccc(-c2ccc3ncnc(Nc4ccc(OCc5cccc(F)c5)c(Cl)c4)c3c2)o1` (centres unmarked) [MS 24, N-(3-chloro-4-((3-fluorobenzyl)oxy)phenyl)-6-(5-((((1-carboxy-2-phenyl)ethyl)amino)methyl)-2-furyl)-4-quinazolinamine], the IC50 in assay [1] and in assay [2] was below 10 µM throughout.
On to `O=C(O)C(CO)NCc1ccc(-c2ccc3ncnc(Nc4ccc(OCc5cccc(F)c5)c(Cl)c4)c3c2)o1` (centres unmarked) [MS 28, N-(3-chloro-4-((3-fluorobenzyl)oxy)phenyl)-6-(5-((((1-carboxy-2-hydroxy)ethyl)amino)methyl)-2-furyl)-4-quinazolinamine], for which the IC50 in assay [1] and in assay [2] was below 10 µM in each case.
Turning to `O=C(O)C(CS)NCc1ccc(-c2ccc3ncnc(Nc4ccc(OCc5cccc(F)c5)c(Cl)c4)c3c2)o1` (centres unmarked) [MS 29], the IC50 in assay [1] and in assay [2] was below 10 µM throughout.
Take `NC(=O)CC(NCc1ccc(-c2ccc3ncnc(Nc4ccc(OCc5cccc(F)c5)c(Cl)c4)c3c2)o1)C(=O)O` (centres unmarked) [MS 30, N-(3-chloro-4-((3-fluorobenzyl)oxy)phenyl)-6-(5-((((1-carboxy-2-aminoformyl)ethyl)amino)methyl)-2-furyl)-4-quinazolinamine]: the IC50 in assay [1] and in assay [2] was below 10 µM throughout.
For the molecule `NC(CCCNCc1ccc(-c2ccc3ncnc(Nc4ccc(OCc5cccc(F)c5)c(Cl)c4)c3c2)o1)C(=O)O` (centres unmarked) [MS 32, N-(3-chloro-4-((3-fluorobenzyl)oxy)phenyl)-6-(5-((((4-carboxy-4-amino)butyl)amino)methyl)-2-furyl)-4-quinazolinamine], the half-maximal inhibitory concentration (IC50) in assay [1] and in assay [2] was below 10 µM throughout.
As to `NC(CCCNCc1ccc(-c2ccc3ncnc(Nc4ccc(F)c(Cl)c4)c3c2)o1)C(=O)O` (centres unmarked) [MS 37, N-(3-chloro-4-fluorophenyl)-6-(5-((((4-carboxy-4-amino)butyl)amino)methyl)-2-furyl)-4-quinazolinamine], the IC50 in assay [2] was below 10 µM.
Turning to `NCCCC(NCc1ccc(-c2ccc3ncnc(Nc4ccc(F)c(Cl)c4)c3c2)o1)C(=O)O` (centres unmarked) [MS 38, N-(3-chloro-4-fluorophenyl)-6-(5-((((1-carboxy-4-amino)butyl)amino)methyl)-2-furyl)-4-quinazolinamine], the IC50 in assay [2] is below 10 µM.
Consider `O=[N+]([O-])c1ccc(CCNCc2ccc(-c3ccc4ncnc(Nc5ccc(F)c(Cl)c5)c4c3)o2)cc1` [MS 40, N-(3-chloro-4-fluorophenyl)-6-(5-(((2-(4-nitrophenyl)ethyl)amino)methyl)-2-furyl)-4-quinazolinamine], for which, in assay [2], the half-inhibitory concentration (IC50) was below 10 µM.
